Test results reported in patent US11419840B2, “Compositions and methods comprising C16:1N7-palmitoleate” (Tersus Life Sciences, LLC, priority 2011, dated 2022).

Key:
Apo E knockout mice [1] = assay: Quantification of aortic sinus lesions (oil red O staining of aortic root); assay type: in vivo, mouse; details: rosuvastatin 20 mg/kg/day; its own control 0.36 ± 0.10
Excerpt: Thirty-four male Apo E knockout mice were obtained from Jackson Laboratories (Bar Harbor, Me.). The mice were fed with normal mouse chow until 2 months of age and randomly allocated into two groups (n=17 each). One group of mice was then fed a control Western high-fat diet (F5722, fat 20%, cholesterol 2.1 gm/kg). […] CCO-Oil has approximately 20 wt % C16:1n7-palmitoleate. The consistency of the food was a paste; it appeared to be enticing to the mice and well tolerated. Water was freely available throughout the course of the study. Blood samples were obtained 8 and 12 weeks after initiation of the diet. At 12 weeks, all mice were sacrificed by intraperitoneal injection of ketamine/xylazine. […] Data were presented as mean±SD. Statistical analysis was performed with t-test. P<0.05 indicates statistical significance.
The surface area of aorta occupied by atherosclerotic lesions was quantified by en face oil red 0 staining, using an approach modified from Palinski et al. After mice were killed, a catheter was inserted into the left ventricle and the arterial tree was perfused with PBS (25 ml), followed by 4% buffered formaldehyde (20 ml, PH 7.4) at a pressure of 100 mm Hg. Under a microscope (Leica M500) the entire aorta attached to the heart was dissected and the adventitial fat was dissected. […]

Apo E knockout mice [2] = assay: Quantification of aorta lesions (en face Sudan IV staining); assay type: in vivo, mouse; details: rosuvastatin 20 mg/kg/day; its own control 21.9 ± 2.9, P<0.05
Excerpt: Thirty-four male Apo E knockout mice were obtained from Jackson Laboratories (Bar Harbor, Me.). The mice were fed with normal mouse chow until 2 months of age and randomly allocated into two groups (n=17 each). One group of mice was then fed a control Western high-fat diet (F5722, fat 20%, cholesterol 2.1 gm/kg). The other group was fed a composition comprising C16:1n7-palmitoleate (CCO-Oil 20 wt %, cholesterol 2.1 gm/kg). […] Water was freely available throughout the course of the study. Blood samples were obtained 8 and 12 weeks after initiation of the diet. At 12 weeks, all mice were sacrificed by intraperitoneal injection of ketamine/xylazine. […] Data were presented as mean±SD. Statistical analysis was performed with t-test. P<0.05 indicates statistical significance.
The surface area of aorta occupied by atherosclerotic lesions was quantified by en face oil red 0 staining, using an approach modified from Palinski et al. After mice were killed, a catheter was inserted into the left ventricle and the arterial tree was perfused with PBS (25 ml), followed by 4% buffered formaldehyde (20 ml, PH 7.4) at a pressure of 100 mm Hg. Under a microscope (Leica M500) the entire aorta attached to the heart was dissected and the adventitial fat was dissected. The ascending aorta was transected, and the heart was placed in histo-choice for assessment of aortic root atherosclerosis. […]

In the case of `CC(C)c1nc(N(C)S(C)(=O)=O)nc(-c2ccc(F)cc2)c1/C=C/[C@@H](O)C[C@@H](O)CC(=O)O` [Rosuvastatin], the “Aortic sinus lesion size” value (Apo E knockout mice [1]) is reported as 0.35 ± 0.10 mm^2 and the “Aortic lesion (% of surface area)” value (Apo E knockout mice [2]) is reported as 11.9 ± 1.9 %.
